Values after ≈ are worked out from the molar mass of the structure shown. Read-outs that look alike come from different tables or passages of the source.
Experiments:
[1] = tested on: E. histolytica HM1:IMSS trophozoites; assay: ATP-bioluminescence growth and survival assay, E. histolytica; assay type: cell-based, Entamoeba histolytica; conditions: Entamoeba histolytica; MtzS, 48 h, anaerobic, n = 3
Procedure: (§1) Compounds were tested for antiparasitic activity against E. histolytica (HM1:1MSS strain) and G. lamblia (WB, BRIS/87/HEPU/713 (713), BRIS/83/HEPU/106 (106) and the metronidazole resistant syngeneic line 713-M3 [[15,16]]) using an ATP-bioluminescence based screen for cell growth and survival [[17,18]]. Assay plates were inoculated with trophozoites (5 × 10^3 parasites/well) and incubated in the GasPak™ EZ Anaerobe Gas Generating Pouch Systems (VWR, West Chester, PA) to maintain anaerobic conditions throughout the incubation period. The assays were performed in triplicate using the CellTiter-Glo Luminescent Cell Viability Assay. Metronidazole was used as a positive control.
(§2) Trophozoites of E. histolytica strain HM1:IMSS and G. lamblia strains WB, BRIS/87/HEPU/713 (713),^10 BRIS/83/HEPU/106 (106)^11 and the metronidazole resistant syngenic line 713-M3^10,11 were axenically maintained in TYI-S-33 medium supplemented with penicillin (100 U/ml), streptomycin (100 µg/ml).^12 E. histolytica and G. lamblia trophozoites were counted using a particle counter (Beckman Coulter, Fullerton, CA). All experiments were performed using trophozoites harvested during the logarithmic phase of growth.
(§3) A three-fold serial dilution was then performed yielding a concentration range 0.25-625 µM. From this dilution plate, 4 µL were transferred into the 96-well screen plates followed by addition of 96 µL of trophozoites (5,000 parasites) to yield a final 8-point concentration range spanning 0.01- 25 µM. Assay plates were incubated for 48 h at 37 °C in the GasPak^TM EZ Anaerobe Gas Generating Pouch Systems (VWR, West Chester, PA) to maintain anaerobic condition throughout the incubation period. The assays were performed in triplicate using the CellTiter-Glo Luminescent Cell Viability Assay.^13

[2] = tested on: G. lamblia BRIS/87/HEPU/713 (713); assay: ATP-bioluminescence growth and survival assay, G. lamblia 713; assay type: cell-based; conditions: Giardia duodenalis, read-out: EC50 G. lamblia 713
Procedure: as §1, §2, §3

[3] = tested on: C. difficile NAP1/027 CD26A54_R; assay: MIC broth microdilution, metronidazole resistant C. difficile CD26A54_R; assay type: cell-based, Clostridium difficile; conditions: Clostridioides difficile
[4] = tested on: C. difficile NAP1/027 CD26A54_S; assay: MIC broth microdilution, C. difficile CD26A54_S; assay type: cell-based, Clostridium difficile; conditions: Clostridioides difficile
[5] = tested on: C. difficile NAP1/027 ATCC BAA-1803; assay: MIC broth microdilution, C. difficile NAP1/027 ATCC BAA-1803; assay type: cell-based, Clostridium difficile; conditions: Clostridioides difficile
Procedure: All compounds were tested for activity against a set of anaerobic C. difficile bacteria (630 ATCC BAA-1382, NAP1/027 M7404, NAP1/027 ATCC BAA-1803, VPI10463 ATCC 43255, CD26A54_S and CD26A54_R) and representative ESKAPE pathogens S. aureus (MRSA ATCC 43300), E. coli (ATCC 25922), K. pneumoniae (ATCC 700603), A. baumannii (ATCC 19606) and P. aeruginosa (ATCC 27853) using a standard broth microdilution assay. Selected compounds were tested for activity against H. pylori strains (26695, and clinical isolates MtzS 13/25, MtzR 98/285 and MtzR 13/61) using agar plate dilution, and for antimicrobial activity against […] Gram-positive bacterial strains: Enterococcus faecalis (VanA clinical isolate), Enterococcus faecium (MDR VanA ATCC 51559), Streptococcus pneumoniae (MDR ATCC 700677), S. aureus (MRSA ATCC 43300, MRSA clinical isolate, MRSA/DRSA clinical isolate, GISA NARSA NRS 1, GISA NARSA NRS 17, VRSA NARSA VRS1, VRSA NARSA VRS4 and VRSA NARSA VRS10) using broth microdilution. C. difficile strains were grown at 37 °C in a COY anaerobic chamber (5% H2, 10% CO2, 85% N2). H. pylori strains were grown at 37 °C under a microaerobic atmosphere (5% O2, 10% CO2). All facultative anaerobic bacteria were grown at 37 °C with normal atmospheric oxygen levels. All experiments were performed in duplicate with metronidazole, vancomycin, linezolid or colistin as positive controls for relevant strains (see Table 1). Positive growth control of bacteria and DMSO as well as a negative control of only media were included for every plate. Full assay details are provided in the supplementary information.
C. difficile ATCC BAA-1382, ATCC BAA-1803, ATCC 43255 and M7404 heat shocked spore stocks (10 µL) were transferred into the anaerobic chamber and 10 µL streaked onto pre-reduced (at least 2.5 hr in anaerobic chamber) BHIS agar plates supplemented with 0.1% w/v sodium taurocholate (BHIS(TA)). Plates were incubated for 24 hours prior to assay to give colonies of size 1-3mm diameter with characteristic uneven borders.
The minimum inhibition concentration was determined according to the CLSI Methods with modifications in broth and inoculum for C. difficile according to Babakhani et al.^7,8 Briefly, compounds were prepared to 20X final concentration in 100% water, 60% DMSO and 40% water or 60% DMSO and 40% media. The compounds along with standard antibiotics were serially diluted two-fold across the wells of 96-well non-binding surface plates (Non binding surface, Corning). The plates were placed in the anaerobic chamber overnight to reduce. C. difficile bacteria from BHIS(TA) agar plates were cultured anaerobically in BHIS at 37 °C overnight. A sample of culture was then diluted 40-fold in BHIS broth and incubated at 37 °C for approximately 4.5 hrs. The resultant mid-log phase culture (OD600= 0.5-0.6) was diluted to the final concentration of ~1×10^6 CFU/mL, then 50 µL was added to each well of the compound-containing 96-well plates. This gave final cell concentration of 5×10^5 CFU/mL, final volume 100 µL and 3% maximum DMSO concentration. Compound concentration was typically from 64 to 0.03 µg/mL. An antibiotic standard was included on each 96 well plate as well as a positive growth control (no compound) and sterility control (no bacteria). […] MICs were the lowest concentration showing no visible growth.

[6] = tested on: G. lamblia WB trophozoites; assay: ATP-bioluminescence growth and survival assay, G. lamblia WB; assay type: cell-based, Giardia lamblia; conditions: Giardia duodenalis; MtzS, 48 h, anaerobic, n = 3
Procedure: as §1, §2, §3

[7] = 24 hr incubation, read-out: MIC C. difficile NAP1/027 CD26A54_R 24 hr
[8] = CD26A54_R, MtzR, 48 h growth, BHIS broth, n = 8, read-out: MIC C. difficile NAP1/027 CD26A54_R 48 h
[9] = 24 hr incubation, read-out: MIC C. difficile NAP1/027 CD26A54_S 24 hr
[10] = CD26A54_S, MtzS (intermediary), 48 h growth, read-out: MIC C. difficile NAP1/027 CD26A54_S 48 h
[11] = ATCC 43255 / ATCC BAA-1803, NAP1/027 (footnote c: ATCC 43255), MtzS, 24 h, median of at least n = 4, read-out: MIC C. difficile NAP1/027 (footnote c)
[12] = ATCCBAA1803, 24 hr incubation, read-out: MIC C. difficile NAP1/027 ATCC BAA-1803 24 hr
[13] = ATCCBAA1803, 48 hr incubation, read-out: MIC C. difficile NAP1/027 ATCC BAA-1803 48 hr

SMILES	EC50 [1]	EC50 [2]	MIC [3, 7]	MIC [3, 8]	MIC [4, 9]	MIC [4, 10]	MIC [5, 11]	MIC [5, 12]	MIC [5, 13]	EC50 [6]
COC(=O)c1cn(CCn2c([N+](=O)[O-])cnc2C)nn1 [Compound 4f, 1-(2-(2-methyl-5-nitro-1H-imidazol-1-yl)ethyl)-4-(methoxycarbonyl)-1H-1,2,3-triazole]	> 25000 nM	1800 nM	4 µg/mL (≈ 14.3 µM)	4 µg/mL (≈ 14.3 µM)	1 µg/mL (≈ 3.57 µM)	2 µg/mL (≈ 7.14 µM)	1 µg/mL (≈ 3.57 µM)	1 µg/mL (≈ 3.57 µM)	1 µg/mL (≈ 3.57 µM)	3000 nM
Cc1ncc([N+](=O)[O-])n1CCn1cc(-c2ccccn2)nn1 [Compound 4h, 1-(2-(2-methyl-5-nitro-1H-imidazol-1-yl)ethyl)-4-(2-pyridinyl)-1H-1,2,3-triazole.xTFA]	4600 nM	280 nM	2 µg/mL	4 µg/mL	1 µg/mL	1 µg/mL	0.5 µg/mL	0.5 µg/mL	0.5 to 1 µg/mL	740 nM
Cc1ncc([N+](=O)[O-])n1CCn1cc(Cc2ccccc2)nn1 [Compound 4k, 1-(2-(2-methyl-5-nitro-1H-imidazol-1-yl)ethyl)-4-benzyl-1H-1,2,3-triazole]	1900 nM	320 nM	2 µg/mL (≈ 6.4 µM)	4 µg/mL (≈ 12.8 µM)	1 µg/mL (≈ 3.2 µM)	1 µg/mL (≈ 3.2 µM)	0.5 µg/mL (≈ 1.6 µM)	0.5 µg/mL (≈ 1.6 µM)	0.5 µg/mL (≈ 1.6 µM)	700 nM
Cc1ncc([N+](=O)[O-])n1CCn1cc(C(O)c2ccccc2)nn1 (stereo not drawn) [Compound 4l, 1-(2-(2-methyl-5-nitro-1H-imidazol-1-yl)ethyl)-4-(1-phenyl-1-hydroxylmethyl)-1H-1,2,3-triazole]	> 25000 nM	2400 nM	4 µg/mL (≈ 12.2 µM)	4 µg/mL (≈ 12.2 µM)	2 µg/mL (≈ 6.09 µM)	2 µg/mL (≈ 6.09 µM)	1 µg/mL (≈ 3.05 µM)	0.5 to 1 µg/mL (≈ 1.52 to 3.05 µM)	1 µg/mL (≈ 3.05 µM)	4400 nM
Cc1ncc([N+](=O)[O-])n1CCn1cc(CN(C)Cc2ccccc2)nn1 [Compound 4m, 1-(2-(2-methyl-5-nitro-1H-imidazol-1-yl)ethyl)-4-(N-benzyl, N-methylaminomethyl)-1H-1,2,3-triazole]	4600 nM	710 nM	8 µg/mL (≈ 22.5 µM)	8 µg/mL (≈ 22.5 µM)	2 µg/mL (≈ 5.63 µM)	2 µg/mL (≈ 5.63 µM)	1 µg/mL (≈ 2.81 µM)	2 µg/mL (≈ 5.63 µM)	1 to 2 µg/mL (≈ 2.81 to 5.63 µM)	1600 nM
Cc1ncc([N+](=O)[O-])n1CCn1cc(-c2ccsc2)nn1 [Compound 4n, 1-(2-(2-methyl-5-nitro-1H-imidazol-1-yl)ethyl)-4-(thiophen-3-yl)-1H-1,2,3-triazole]	3800 nM	180 nM	2 µg/mL (≈ 6.57 µM)	2 µg/mL (≈ 6.57 µM)	1 µg/mL (≈ 3.29 µM)	1 µg/mL (≈ 3.29 µM)	0.5 µg/mL (≈ 1.64 µM)	0.5 µg/mL (≈ 1.64 µM)	0.5 µg/mL (≈ 1.64 µM)	370 nM
